# Measurements published in patent US10533015B1, “Opioid receptor antagonist prodrugs” (Nirsum Laboratories, Inc., priority 2019, dated 2020).
# Where two headings read alike, the source gives them in different places.
# How the values were obtained:
# [1] = Plasma stability assay, rat plasma; type: in vitro ADME; details: 10 μM, 37° C.
# Method in brief: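 Rat, dog, cynomolgus monkey and human plasma incubated in duplicate; rat sampled at 0, 15, 120, 480 and 1440 min. Dog, monkey and human used 2 μM compound (final), 1% solvent, 37° C., sampled at 0, 10, 30, 60 and 120 min. HPLC-MS gave % parent remaining.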
# [2] = Plasma stability assay, dog plasma; type: in vitro ADME; details: 2 μM, 37° C.
# Protocol: (§1) Plasma stability determination of the test compounds in rat, dog, cynomolgus monkey and human plasma is performed using HPLC-MS. For rat, incubations are carried out in 96-well polypropylene plates in 5 aliquots of 70 μL each (one for each time point). […] Five time points are analyzed (0, 15, 120, 480 and 1440 min). […] All incubations are performed in duplicates. The samples are analyzed by HPLC-MS. The percentage of parent compound remaining after incubation in plasma is determined.
# [3] = Plasma stability assay, monkey plasma; type: in vitro ADME, cynomolgus monkey; details: 2 μM, 37° C.
# Protocol: as §1
# [4] = Plasma stability assay, human plasma; type: in vitro ADME; details: 2 μM, 37° C.
# Protocol: as §1
# [5] = Liver S9 fraction stability, dog; type: in vitro ADME; details: dog liver S9, 1.0 mg/ml S9 protein, 2 μM, 37° C.
# Protocol: (§2) Liver S9 fraction stability determination of the test compounds in dog, cynomolgus monkey and human is performed using HPLC-MS. Test compound (2 μM, 0.1% DMSO, 1% Methanol final concentration) was assessed for stability in a 50 μl phosphate buffer containing 1.0 mg/ml S9 protein from each of the three species and 5 mM D-saccharic acid-1, 4-lactone. Samples were incubated at 37° C. for 60 minutes and the % compound remaining was assessed.
# [6] = Liver S9 fraction stability, monkey; type: in vitro ADME, cynomolgus monkey; details: monkey liver S9, 1.0 mg/ml S9 protein, 2 μM, 37° C.
# Protocol: as §2
# [7] = Liver S9 fraction stability, human; type: in vitro ADME; details: human liver S9, 1.0 mg/ml S9 protein, 2 μM, 37° C.
# Protocol: as §2
# DOR = target: T1, DOR (Homo sapiens, UniProt P41143); experiment: Opioid receptor binding assay, DOR ([3H]-DADLE); details: MaxDose 10000 nM
# T1 construct: expressed in transfected cells
# T1 sequence (P41143 whole entry): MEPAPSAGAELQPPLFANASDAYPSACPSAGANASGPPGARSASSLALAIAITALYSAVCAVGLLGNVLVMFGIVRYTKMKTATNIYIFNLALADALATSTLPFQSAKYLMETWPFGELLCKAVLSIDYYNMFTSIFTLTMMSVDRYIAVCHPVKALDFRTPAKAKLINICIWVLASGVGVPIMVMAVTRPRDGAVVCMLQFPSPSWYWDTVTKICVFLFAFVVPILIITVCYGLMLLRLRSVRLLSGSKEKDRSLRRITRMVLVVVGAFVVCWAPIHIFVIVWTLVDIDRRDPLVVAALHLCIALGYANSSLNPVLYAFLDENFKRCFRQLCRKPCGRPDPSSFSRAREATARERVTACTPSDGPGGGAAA
# Protocol: Receptor binding assays were performed to assess the ability of compounds to inhibit binding to radiolabeled ligand.
# The stable cell lines were established and prepared cell membrane obtained using these cell lines.
# 3) Assay Procedure 1) Transfer 1 μl of specified concentration compound to assay plate according to the plate map for nonspecific binding. Transfer 1 μl of DMSO to assay plate according to plate map for total binding. 2) Follow the plate map. Dispense 99 μl of membrane stocks into the plate. 3) Add 100 μl of radio ligand. 4) Seal the plates. Incubate at RT for 1 hour. 5) Soak the Unifilter-96 GF/C filter plates with 50 μl of 0.3% PEI per well for at least 0.5 hour at room temperature. 6) When binding assays are completed, filter the reaction mixture through GF/C plates using Perkin Elmer Filtermate Harvester, and then wash each plate for 4 times with cold wash buffer. 7) Dry the filter plates for 1 hour at 50 degrees. 8) After drying, seal the bottom of the filter plate wells using Perkin Elmer Unifilter-96 backing seal tape. Add 50 μl of Perkin Elmer Microscint 20 cocktail. Seal top of filter plates with Perkin Elmer TopSeal-A sealing film. 9) Count ^3H trapped on filter using Perkin Elmer MicroBeta2 Reader second day. 10) Analyze the data with GraphPad Prism 5. Calculate the “Inhibition [% Control]” using the equation: % Inh=(1-Background subtracted Assay value/Background subtracted HC value)*100. Results
# [8] = heating temp. 40 °C, obs. temp. 40 °C
# [9] = heating temp. 60 °C, obs. temp. 25 °C
Compound,% remaining at time point ([1]; 0 min) [%],% remaining at time point ([1]; 15 min) [%],% remaining at time point ([1]; 120 min) [%],% remaining at time point ([1]; 480 min) [%],% remaining at time point ([1]; 1440 min) [%],% remaining at time point ([2]; 0 min) [%],% remaining at time point ([2]; 15 min (head)) [%],% remaining at time point ([2]; 120 min (head)) [%],% remaining at time point ([2]; 480 min (head)) [%],% remaining at time point ([2]; 1440 min (head)) [%],% remaining at time point ([3]; 0 min) [%],% remaining at time point ([3]; 15 min (head)) [%],% remaining at time point ([3]; 120 min (head)) [%],% remaining at time point ([3]; 480 min (head)) [%],% remaining at time point ([3]; 1440 min (head)) [%],% remaining at time point ([4]; 0 min) [%],% remaining at time point ([4]; 15 min (head)) [%],% remaining at time point ([4]; 120 min (head)) [%],Approximate Solubility (mg/mL) in Excipient: Cottonseed oil [9] [mg/mL],Approximate Solubility (mg/mL) in Excipient: Sesame oil [9] [mg/mL],further results
"C=C1CC[C@@]2(O)C3Cc4ccc(OC(=O)CCCCCCC/C=C/CCCCCCCC)c5c4[C@@]2(CCN3CC2CC2)[C@H]1O5 [Compound 15, (4aS,7aS,12bS)-3-(cyclopropylmethyl)-4a-hydroxy-7-methylene-2,3,4,4a,5,6,7,7a-octahydro-1H-4,12-methanobenzofuro[3,2-e]isoquinolin-9-yl (E)-octadec-9-enoate]",100,72,69.3,52,35,100,82.5,80.6,90.1,86.1,100,74.5,72.7,80.6,76.5,100,83.3,82.5,>402.6,>396.5,"% remaining at time point ([4]; 480 min (head)): 107.1%; % remaining at time point ([4]; 1440 min (head)): 109.0%; % remaining at 60 minutes [5]: 80.9%; % remaining at 60 minutes [6]: 76.7%; % remaining at 60 minutes [7]: 59.8%; Approximate Solubility (mg/mL) in Excipient: Cottonseed oil [8]: <51 mg/mL; Approximate Solubility (mg/mL) in Excipient: Cottonseed oil (heating temp. 60 °C, obs. temp. 40 °C): >401 mg/mL; Approximate Solubility (mg/mL) in Excipient: Ethanol [8]: <20 mg/mL; Approximate Solubility (mg/mL) in Excipient: Sesame oil [8]: <52 mg/mL; Equilibrium solubility (mg/mL) Water [8]: <0.0002 mg/mL"
"C=C1CC[C@@]2(O)C3Cc4ccc(OCOC(=O)CCCCCCCCCCCCC)c5c4[C@@]2(CCN3CC2CC2)[C@H]1O5 [Compound 45, (((4aS,7aS,12bS)-3-(cyclopropylmethyl)-4a-hydroxy-7-methylene-2,3,4,4a,5,6,7,7a-octahydro-1H-4,12-methanobenzofuro[3,2-e]isoquinolin-9-yl)oxy)methyl tetradecanoate]",,,,,,,,,,,,,,,,,,,>402,267 to 288,% Inh@MaxDose (DOR): 73.8%; Equilibrium solubility (mg/mL) Water [8]: <0.001 mg/mL
"C=C1CC[C@@]2(O)C3Cc4ccc(OCOC(=O)OCCCCCCCCCCCC)c5c4[C@@]2(CCN3CC2CC2)[C@H]1O5 [Compound 24, (((4aS,7aS,12bS)-3-(cyclopropylmethyl)-4a-hydroxy-7-methylene-2,3,4,4a,5,6,7,7a-octahydro-1H-4,12-methanobenzofuro[3,2-e]isoquinolin-9-yl)oxy)methyl dodecyl carbonate]",100,32,11.8,8.2,3,100,94.7,104.5,115.7,116.2,100,90.7,93.5,96.2,97.8,100,94,102.3,>403,338 to 368,% remaining at time point ([4]; 480 min (head)): 105.3%; % remaining at time point ([4]; 1440 min (head)): 112.5%; % remaining at 60 minutes [5]: 3.6%; % remaining at 60 minutes [6]: 3%; % remaining at 60 minutes [7]: 3.5%; Equilibrium solubility (mg/mL) Water [8]: <0.001 mg/mL
"C=C1CC[C@@]2(O)C3Cc4ccc(OC(=O)OCCCCCCCCCCCC)c5c4[C@@]2(CCN3CC2CC2)[C@H]1O5 [Compound 6, (4aS,7aS,12bS)-3-(cyclopropylmethyl)-4a-hydroxy-7-methylene-2,3,4,4a,5,6,7,7a-octahydro-1H-4,12-methanobenzofuro[3,2-e]isoquinolin-9-yl dodecyl carbonate]",100,31.3,7.6,4,1.6,100,89.1,96.9,107.2,101.2,100,88.7,74.3,68.4,70.1,100,97.6,102,>397,>386,% remaining at time point ([4]; 480 min (head)): 109.8%; % remaining at time point ([4]; 1440 min (head)): 115.1%; % remaining at 60 minutes [5]: 17.1%; % remaining at 60 minutes [6]: 0%; % remaining at 60 minutes [7]: 5.3%; % Inh@MaxDose (DOR): 70.9%; Approximate Solubility (mg/mL) in Excipient: Ethanol [8]: 120 to 170 mg/mL; Approximate Solubility (mg/mL) in Excipient: Sesame oil [8]: >402.8 mg/mL
"C=C1CC[C@@]2(O)C3Cc4ccc(OC(=O)OCCCCCCCCCCCCCCC)c5c4[C@@]2(CCN3CC2CC2)[C@H]1O5 [Compound 32, (4aS,7aS,12bS)-3-(cyclopropylmethyl)-4a-hydroxy-7-methylene-2,3,4,4a,5,6,7,7a-octahydro-1H-4,12-methanobenzofuro[3,2-e]isoquinolin-9-yl pentadecyl carbonate]",,,,,,,,,,,,,,,,,,,>395.8,>410,% Inh@MaxDose (DOR): 43.2%
